The text below walks through data of ChEMBL document CHEMBL4002621, “Novel 12N-substituted matrinanes as potential anti-coxsackievirus agents” (Bioorg Med Chem Lett, 2017).

The term IC50 denotes the concentration that gives 50% inhibition. As usually defined, the LD50 is the dose expected to kill half of the subjects tested.

The nature of series [1]: Cytotoxicity against African green monkey Vero cells assessed as growth inhibition after 48 hrs. To be noted: chlorocebus sabaeus, read-out: TC50. The series is classed as cell-based.
Series [2] is described as follows: Selectivity index, ratio of TC50 for African green monkey Vero cells to IC50 for Coxsackievirus B2 (strain Ohio-1) infected in African green monkey Vero cells. The series is classed as toxicity. The note with it: read-out: Selectivity Index.
Series [3] relates to Coxsackievirus B1. Nature of the series: Antiviral activity against Coxsackievirus B1 Conn-5 infected in African green monkey Vero cells assessed as reduction in viral-induced cytopathic effect by Reed and Muench analysis. The series is classed as functional. The note with it: Enterovirus B, Conn-5, Vero. For orientation: Protection from cytopathic effect is a common read-out in antiviral testing.

Series [4] has as its system Coxsackievirus B4. Nature of the series: Antiviral activity against Coxsackievirus B4 J.V.B infected in African green monkey Vero cells assessed as reduction in viral-induced cytopathic effect by Reed and Muench analysis. The class given is functional. To be noted: Enterovirus B.
Series [5] has as its system Coxsackievirus A16. Nature of the series: Antiviral activity against Coxsackievirus A16 shzh05-1 infected in African green monkey Vero cells assessed as reduction in viral-induced cytopathic effect by Reed and Muench analysis. To be noted: Enterovirus A, shzh05-1, Vero. The class given is functional.
The subject of series [6] is Coxsackievirus B5. Nature of the series: Antiviral activity against Coxsackievirus B5 Faulkner infected in African green monkey Vero cells assessed as reduction in viral-induced cytopathic effect by Reed and Muench analysis. To be noted: Enterovirus B. The class given is functional.
The nature of series [7]: Selectivity index, ratio of TC50 for African green monkey Vero cells to IC50 for Coxsackievirus B1 Conn-5 infected in African green monkey Vero cells. The series is classed as toxicity. To be noted: read-out: Selectivity Index.
Series [8] can be described thus: Selectivity index, ratio of TC50 for African green monkey Vero cells to IC50 for Coxsackievirus B5 Faulkner infected in African green monkey Vero cells. The note with it: read-out: Selectivity Index. The class given is toxicity.
Series [9] is described as follows: Antiviral activity against Coxsackievirus B6 (strain Schmitt) infected in African green monkey Vero cells assessed as reduction in viral-induced cytopathic effect by Reed and Muench analysis. The class given is functional. To be noted: Enterovirus B.
Series [10] in a line: Selectivity index, ratio of TC50 for African green monkey Vero cells to IC50 for Coxsackievirus B6 (strain Schmitt) infected in African green monkey Vero cells. The class given is toxicity. To be noted: read-out: Selectivity Index.
Series [11] in a line: Selectivity index, ratio of TC50 for African green monkey Vero cells to IC50 for Coxsackievirus A16 shzh05-1 infected in African green monkey Vero cells. To be noted: read-out: Selectivity Index. The series is classed as toxicity.
A short description of series [12]: Selectivity index, ratio of TC50 for African green monkey Vero cells to IC50 for Coxsackievirus B3 (strain Nancy) infected in African green monkey Vero cells. The series is classed as toxicity. To be noted: read-out: Selectivity Index.
The subject of series [13] is Coxsackievirus B3. Nature of the series: Antiviral activity against Coxsackievirus B3 (strain Nancy) infected in African green monkey Vero cells assessed as reduction in viral-induced cytopathic effect by Reed and Muench analysis. The series is classed as functional. To be noted: Enterovirus B.
Series [14] is described as follows: Antiviral activity against Coxsackievirus B2 (strain Ohio-1) infected in African green monkey Vero cells assessed as reduction in viral-induced cytopathic effect by Reed and Muench analysis. The class given is functional. To be noted: Enterovirus B.
The nature of series [15]: Acute toxicity in po dosed Kunming mouse assessed as effect on body weight and survival administered as single dose measured up to 7 days. The series is classed as organism-based. The note with it: in vivo.
A short description of series [16]: Selectivity index, ratio of TC50 for African green monkey Vero cells to IC50 for Coxsackievirus B4 J.V.B infected in African green monkey Vero cells. The class given is toxicity. The note with it: read-out: Selectivity Index.

For `CCCC[C@@H]1[C@H]2CCCN3CCC[C@@H](CN1C(=O)c1cc(OC)c(OC)c(OC)c1)[C@@H]23`, in [1], the CC50 at 48 h fell in the range of 115 to 200 µM. Moreover, the selectivity ratio is 33.7 in [2]; 23.4 in series [7]; 15.6 in series [8]; 33.7 in series [10]; 18.7 in [11]; greater than 50.6 in series [12]. In addition, in series [16], the selectivity ratio is 23.4. Moreover, the 50% inhibitory concentration (IC50) in series [3] is 4.94 µM; in series [4], 4.94 µM; in [5] it was 6.17 µM; in [6], 7.41 µM; in series [9], 3.43 µM; in series [13], 3.95 µM. Besides, the IC50 in series [14] was determined as 3.43 µM. Moreover, the LD50 at 168 h in series [15] turned out to be 327 mg/kg.
`CCCC[C@@H]1[C@H]2CCCN3CCC[C@@H](CN1S(=O)(=O)c1ccsc1C(=O)OC)[C@@H]23`: in series [1], the CC50 at 48 h was greater than 200 µM. The selectivity ratio in series [12] is greater than 40.5. Also, in [13], the half-inhibitory concentration (IC50) was 4.94 µM.
For `CCCC[C@@H]1[C@H]2CCCN3CCC[C@@H](CN1S(=O)(=O)c1cccc(C(N)=O)c1)[C@@H]23`, the CC50 at 48 h in series [1] amounted to 230 µM. Besides, in [12], the selectivity ratio came out at 30.7. Further, the IC50 in [13] worked out at 7.47 µM.
For the compound `CCCC[C@@H]1[C@H]2CCCN3CCC[C@@H](CN1S(=O)(=O)c1sc(NC(C)=O)nc1C)[C@@H]23`, in series [1], the CC50 at 48 h came out at 96.2 µM. The selectivity ratio in [12] is 46.7. The IC50 in series [13] worked out at 2.06 µM.
For `CCCC[C@@H]1[C@H]2CCCN3CCC[C@@H](CN1C(=O)CC(=O)OC)[C@@H]23`, in that order: greater than 200 µM, greater than 4.33 and 46.2 µM.
As to `CCCC[C@@H]1[C@H]2CCCN3CCC[C@@H](CN1C(=O)c1ccccc1OC(C)=O)[C@@H]23`, the CC50 at 48 h in series [1] was 241 µM. Also, the selectivity ratio in [12] is 17.1. In addition, the IC50 in series [13] came to 14.1 µM.
The like results for `CCCC[C@@H]1[C@H]2CCCN3CCC[C@@H](CN1C(=O)CCC)[C@@H]23` were, in that order, 200 µM, 6.24 and 32 µM.
As to `CCCC[C@@H]1[C@H]2CCCN3CCC[C@@H](CN1Cc1ccc(C(=O)OC)cc1)[C@@H]23`, in series [1], the CC50 at 48 h amounted to 96.2 µM. The selectivity ratio in [12] amounted to 15.6. Further, in series [13], the IC50 was 6.17 µM.
As for `CCCC[C@@H]1[C@H]2CCCN3CCC[C@@H](CN1C(=O)N1CCN(S(C)(=O)=O)C1=O)[C@@H]23`, the CC50 at 48 h in series [1] was greater than 469 µM. The selectivity ratio in series [12] was greater than 9. In addition, the IC50 in series [13] is 52.1 µM.
The like results for `CCCC[C@@H]1[C@H]2CCCN3CCC[C@@H](CN1S(=O)(=O)c1ccsc1C(=O)O)[C@@H]23` were, in that order, greater than 200 µM, greater than 13.3 and 15 µM.
Consider `CCCC[C@@H]1[C@H]2CCCN3CCC[C@@H](CN1S(=O)(=O)c1cccnc1)[C@@H]23`, for which the CC50 at 48 h in series [1] fell in the range of 200 to 592 µM. The selectivity ratio in series [2] is greater than 59.7; in series [7], greater than 99; in series [8], greater than 58.3; in [10] it was greater than 58.1; in series [11], greater than 27; in series [12], greater than 148. Further, in series [16], the selectivity ratio is greater than 58.3. Moreover, the IC50 in [3] came to 2.02 µM; in [4], 3.43 µM; in [5], 7.41 µM; in [6] it was 3.43 µM; in series [9], 3.43 µM; in series [13] it was 3.99 µM. Also, in [14], the IC50 amounted to 3.35 µM. Moreover, the LD50 at 168 h in series [15] was 330 mg/kg.
For `CCCC[C@@H]1[C@H]2CCCN3CCC[C@@H](CN1C(=O)c1c(C)noc1C)[C@@H]23`, in series [1], the CC50 at 48 h was greater than 556 µM. Moreover, the selectivity ratio in series [12] is greater than 81. Further, the half-maximal inhibitory concentration (IC50) in series [13] turned out to be 6.87 µM.
As for `CCCC[C@@H]1[C@H]2CCCN3CCC[C@@H](CN1C(=O)c1ccccc1O)[C@@H]23`, the CC50 at 48 h in series [1] turned out to be 324 µM. In series [13], the IC50 is greater than 62.3 µM.
In the case of `CCCC[C@@H]1[C@H]2CCCN3CCC[C@@H](CN1S(=O)(=O)c1ccccc1C(N)=O)[C@@H]23`, in series [1], the CC50 at 48 h came out at 276 µM. The selectivity ratio in [12] is 11.8. Also, the 50% inhibitory concentration (IC50) in series [13] stood at 23.3 µM.
Turning to `CCCC[C@@H]1[C@H]2CCCN3CCC[C@@H](CN1S(=O)(=O)c1cn(C)cn1)[C@@H]23`, in series [1], the CC50 at 48 h was greater than 200 µM. For the same compound, in series [13], the 50% inhibitory concentration (IC50) was greater than 66.7 µM.
In the case of `CCCC[C@@H]1[C@H]2CCCN3CCC[C@@H](CN1S(=O)(=O)c1sc(N)nc1C)[C@@H]23`, the CC50 at 48 h in [1] was 233 µM. The IC50 in series [13] is greater than 53.8 µM.
On to `CCCC[C@@H]1[C@H]2CCCN3CCC[C@@H](CN1S(=O)(=O)c1cccc(C#N)c1)[C@@H]23`, for which the CC50 at 48 h in series [1] was determined as 183 µM. Further, the selectivity ratio in series [12] came to 146. In addition, the half-maximal inhibitory concentration (IC50) in series [13] was determined as 1.26 µM.
Regarding `CCCC[C@@H]1[C@H]2CCCN3CCC[C@@H](CN1Cc1ccccc1)[C@@H]23`, the CC50 at 48 h in [1] is 96.2 µM. The IC50 in series [13] is greater than 22.2 µM.
On to `CCCC[C@@H]1[C@H]2CCCN3CCC[C@@H](CN1C(=O)CCC(=O)OC)[C@@H]23`, for which the CC50 at 48 h in series [1] is greater than 200 µM. Moreover, the selectivity ratio in series [12] was greater than 18.1. In [13], the concentration for half-maximal inhibition (IC50) is 11.1 µM.
On to `CCCC[C@@H]1[C@H]2CCCN3CCC[C@@H](CN1S(=O)(=O)c1ccc(C(N)=O)cc1)[C@@H]23`, for which the CC50 at 48 h in series [1] turned out to be 331 µM. Besides, the selectivity ratio in series [12] came out at 2.68. Besides, the IC50 in [13] is 124 µM.
The like results for `CCCC[C@@H]1[C@H]2CCCN3CCC[C@@H](CN1S(=O)(=O)c1ccc4oc(=O)ccc4c1)[C@@H]23` were, in that order, 180 µM, 56 and 3.21 µM.
For `CCCC[C@@H]1[C@H]2CCCN3CCC[C@@H](CN1S(=O)(=O)c1cccs1)[C@@H]23`, in that order: 251 µM, 13 and 19.4 µM.
The like results for `CCCC[C@@H]1[C@H]2CCCN3CCC[C@@H](CN1C(=O)c1ccc(OC)cc1)[C@@H]23` were, in that order, 116 µM, 18.7 and 6.17 µM.
Take `CCCC[C@@H]1[C@H]2CCCN3CCC[C@@H](CN1S(=O)(=O)CCN)[C@@H]23`: the CC50 at 48 h in series [1] was 280 µM. Moreover, the concentration for half-maximal inhibition (IC50) in [13] is greater than 64.7 µM.
`NC(=O)c1ncn([C@@H]2O[C@H](CO)[C@@H](O)[C@H]2O)n1` [RIBAVIRIN]: the CC50 at 48 h in series [1] lay within 6360 to 40900 µM. The IC50 was greater than 40900 µM in series [4], 9620 µM in series [5], 379 µM in series [13] and greater than 40900 µM in series [14]. The selectivity ratio in series [7] was greater than 17.2; in series [8] it was greater than 12.3; in series [10] it was greater than 19.6; in [11], greater than 4.3; in series [12], 16.8.
